According to the NIST ThermoML archive (doi:10.1007/s10765-010-0737-5):
Numbers after ± are expanded uncertainties.

Assay: xn = mol fraction of the nth substance listed
Details: Liquid; for viscosity: 101 kPa, Capillary tube (Ostwald / Ubbelohde) method; for mass density: 101.3 kPa

CCC(C)Cl (configuration not stated) [2-chlorobutane] + CC(C)OC(C)C
Details | mass density [kg/m3] | viscosity [mPa·s]
283.15 K, x1 = 0.0519 | 740.159 ± 0.9 | 0.3683 ± 0.004
283.15 K, x1 = 0.0988 | 745.897 ± 0.89 | 0.3716 ± 0.004
283.15 K, x1 = 0.2006 | 758.792 ± 0.87 | 0.3796 ± 0.0041
283.15 K, x1 = 0.3211 | 774.756 ± 0.83 | 0.3899 ± 0.0042
283.15 K, x1 = 0.4201 | 788.575 ± 0.81 | 0.3991 ± 0.0043
283.15 K, x1 = 0.532 | 804.971 ± 0.78 | 0.4101 ± 0.0044
283.15 K, x1 = 0.6244 | 819.223 ± 0.74 | 0.4199 ± 0.0045
283.15 K, x1 = 0.726 | 835.602 ± 0.71 | 0.431 ± 0.0046
283.15 K, x1 = 0.8163 | 850.907 ± 0.68 | 0.4413 ± 0.0046
283.15 K, x1 = 0.8817 | 862.411 ± 0.66 | 0.4489 ± 0.0047
283.15 K, x1 = 0.9634 | 877.39 ± 0.63 | 0.4587 ± 0.0048
283.15 K, x1 = 1 | 884.34 ± 0.61 | 0.4631 ± 0.0048
288.15 K, x1 = 0.0519 | 734.981 ± 0.92 | 0.3519 ± 0.0039
288.15 K, x1 = 0.0988 | 740.712 ± 0.9 | 0.3549 ± 0.0039
288.15 K, x1 = 0.2006 | 753.569 ± 0.88 | 0.3621 ± 0.004
288.15 K, x1 = 0.3211 | 769.483 ± 0.84 | 0.3713 ± 0.004
288.15 K, x1 = 0.4201 | 783.251 ± 0.82 | 0.3795 ± 0.0041
288.15 K, x1 = 0.532 | 799.602 ± 0.79 | 0.3894 ± 0.0042
288.15 K, x1 = 0.6244 | 813.814 ± 0.76 | 0.398 ± 0.0043
288.15 K, x1 = 0.726 | 830.144 ± 0.72 | 0.408 ± 0.0044
288.15 K, x1 = 0.8163 | 845.414 ± 0.69 | 0.4172 ± 0.0044
288.15 K, x1 = 0.8817 | 856.901 ± 0.67 | 0.424 ± 0.0045
288.15 K, x1 = 0.9634 | 871.819 ± 0.64 | 0.4326 ± 0.0046
288.15 K, x1 = 1 | 878.756 ± 0.62 | 0.4365 ± 0.0046
293.15 K, x1 = 0.0519 | 729.792 ± 0.93 | 0.3371 ± 0.0038
293.15 K, x1 = 0.0988 | 735.485 ± 0.91 | 0.34 ± 0.0038
293.15 K, x1 = 0.2006 | 748.303 ± 0.89 | 0.3468 ± 0.0038
293.15 K, x1 = 0.3211 | 764.161 ± 0.86 | 0.3555 ± 0.0039
293.15 K, x1 = 0.4201 | 777.889 ± 0.83 | 0.3632 ± 0.004
293.15 K, x1 = 0.532 | – | 0.3725 ± 0.0041
293.15 K, x1 = 0.6244 | 808.369 ± 0.77 | 0.3806 ± 0.0041
293.15 K, x1 = 0.726 | 824.657 ± 0.73 | 0.39 ± 0.0042
293.15 K, x1 = 0.8163 | 839.877 ± 0.7 | 0.3987 ± 0.0043
293.15 K, x1 = 0.8817 | 851.332 ± 0.68 | 0.4051 ± 0.0043
293.15 K, x1 = 0.9634 | 866.214 ± 0.65 | 0.4131 ± 0.0044
293.15 K, x1 = 1 | 873.13 ± 0.63 | 0.4167 ± 0.0044
298.15 K, x1 = 0.0519 | 724.535 ± 0.94 | 0.321 ± 0.0036
298.15 K, x1 = 0.0988 | 730.22 ± 0.93 | 0.3239 ± 0.0036
298.15 K, x1 = 0.2006 | 742.995 ± 0.9 | 0.3306 ± 0.0037
298.15 K, x1 = 0.3211 | 758.802 ± 0.87 | 0.3392 ± 0.0038
298.15 K, x1 = 0.4201 | 772.485 ± 0.84 | 0.3467 ± 0.0038
298.15 K, x1 = 0.532 | 788.75 ± 0.81 | 0.3559 ± 0.0039
298.15 K, x1 = 0.6244 | 802.882 ± 0.78 | 0.3639 ± 0.004
298.15 K, x1 = 0.726 | 819.123 ± 0.74 | 0.3731 ± 0.0041
298.15 K, x1 = 0.8163 | 834.307 ± 0.71 | 0.3817 ± 0.0041
298.15 K, x1 = 0.8817 | 845.724 ± 0.69 | 0.3879 ± 0.0042
298.15 K, x1 = 0.9634 | 860.57 ± 0.66 | 0.3959 ± 0.0043
298.15 K, x1 = 1 | 867.474 ± 0.65 | 0.3993 ± 0.0043
303.15 K, x1 = 0.0519 | 719.276 ± 0.95 | 0.3033 ± 0.0035
303.15 K, x1 = 0.0988 | 724.919 ± 0.94 | 0.3061 ± 0.0035
303.15 K, x1 = 0.2006 | 737.649 ± 0.91 | 0.3127 ± 0.0035
303.15 K, x1 = 0.3211 | 753.411 ± 0.88 | 0.3212 ± 0.0036
303.15 K, x1 = 0.4201 | 767.06 ± 0.85 | 0.3286 ± 0.0037
303.15 K, x1 = 0.532 | 783.263 ± 0.82 | 0.3375 ± 0.0038
303.15 K, x1 = 0.6244 | 797.355 ± 0.79 | 0.3454 ± 0.0038
303.15 K, x1 = 0.726 | 813.555 ± 0.76 | 0.3545 ± 0.0039
303.15 K, x1 = 0.8163 | 828.698 ± 0.72 | 0.3628 ± 0.004
303.15 K, x1 = 0.8817 | 840.084 ± 0.7 | 0.369 ± 0.004
303.15 K, x1 = 0.9634 | 854.895 ± 0.67 | 0.3767 ± 0.0041
303.15 K, x1 = 1 | 861.779 ± 0.66 | 0.38 ± 0.0041
308.15 K, x1 = 0.0519 | 713.939 ± 0.96 | 0.2887 ± 0.0033
308.15 K, x1 = 0.0988 | 719.569 ± 0.95 | 0.2915 ± 0.0034
308.15 K, x1 = 0.2006 | 732.261 ± 0.92 | 0.2977 ± 0.0034
308.15 K, x1 = 0.3211 | 747.973 ± 0.89 | 0.3058 ± 0.0035
308.15 K, x1 = 0.4201 | 761.571 ± 0.86 | 0.3127 ± 0.0035
308.15 K, x1 = 0.532 | 777.737 ± 0.83 | 0.3212 ± 0.0036
308.15 K, x1 = 0.6244 | 791.784 ± 0.8 | 0.3287 ± 0.0037
308.15 K, x1 = 0.726 | 807.944 ± 0.77 | 0.3374 ± 0.0038
308.15 K, x1 = 0.8163 | 823.046 ± 0.74 | 0.3453 ± 0.0038
308.15 K, x1 = 0.8817 | 834.402 ± 0.71 | 0.3511 ± 0.0039
308.15 K, x1 = 0.9634 | 849.179 ± 0.68 | 0.3584 ± 0.0039
308.15 K, x1 = 1 | 856.044 ± 0.67 | 0.3615 ± 0.004
313.15 K, x1 = 0.0519 | 708.573 ± 0.97 | 0.2752 ± 0.0032
313.15 K, x1 = 0.0988 | 714.181 ± 0.96 | 0.2779 ± 0.0033
313.15 K, x1 = 0.2006 | 726.833 ± 0.93 | 0.2838 ± 0.0033
313.15 K, x1 = 0.3211 | 742.484 ± 0.9 | 0.2914 ± 0.0034
313.15 K, x1 = 0.4201 | 756.049 ± 0.87 | 0.2981 ± 0.0034
313.15 K, x1 = 0.532 | 772.166 ± 0.84 | 0.3062 ± 0.0035
313.15 K, x1 = 0.6244 | 786.18 ± 0.81 | 0.3133 ± 0.0036
313.15 K, x1 = 0.726 | 802.287 ± 0.78 | 0.3215 ± 0.0036
313.15 K, x1 = 0.8163 | 817.349 ± 0.75 | 0.329 ± 0.0037
313.15 K, x1 = 0.8817 | 828.683 ± 0.72 | 0.3345 ± 0.0037
313.15 K, x1 = 0.9634 | 843.42 ± 0.69 | 0.3413 ± 0.0038
313.15 K, x1 = 1 | 850.266 ± 0.68 | 0.3443 ± 0.0038
